# Assay results taken from PMC4742278, “BS69/ZMYND11 C-Terminal Domains Bind and Inhibit EBNA2” (PLoS Pathogens, 2016).
# Numbering of substitutions follows the chain as printed. Ends that are not written are not given here.
# Experiments:
# BS69CC-MYND Q546A/W550A = assay: ITC binding to BS69CC-MYND Q546A/W550A; set-up: species or system mouse; settings: S1E Fig; ITC parameters could not be reliably determined
# Text: (§1) The DNA sequence encoding residues 440–562 (BS69CC-MYND) of mouse BS69/ZMYND11 was inserted into a modified PRSF-duet vector (Novagen), in which the BS69 fragments are separated from the preceding His6-SUMO tag by a ubiquitin-like protein (ULP1) cleavage site; and the DNA sequence encoding BS69 516–562 (BS69MYND) was inserted into a pGEX-6P-1 vector (GE Healthcare), preceded by a GST tag and a PreScission protease cleavage site. Note that the amino acid sequences of both fragments are identical to the corresponding regions of human BS69. The BS69MYND mutants were constructed by site-directed mutagenesis and confirmed by DNA sequencing. The plasmid was then transformed into BL21 (DE3) RIL cell strain for overexpression. The bacterial cells were grown at 37°C and induced by 0.4 mM isopropyl β-d-1-thiogalactopyranoside (IPTG) when the cells density reached an optical density (OD600) of 0.6. After induction, the cells continued to grow at 20°C for overnight. […]
# (§2) The EBNA2_381–389 peptide with an additional Gly-Tyr dipeptide at the C-terminus (NH2-SMPSLEPVLGY-CONH2), the EBNA2_435–445 peptide, and the EBNA2_381–445 peptide were used for ITC assays. […] The ITC data was analyzed with the Origin 7.0 software using a one-site fitting model.
# BS69MYND = target: T1, BS69MYND (Mus musculus, UniProt Q8R5C8); assay: ITC binding to BS69MYND wild type; settings: EBNA2_435–445, peptide titrated into BS69MYND, 5°C, 20 mM Tris-HCl pH 7.5, 100 mM NaCl, 2 mM DTT, one-site fitting, read-out: dissociation constant (K d)
# T1 construct: GST (N, cleaved yes); made in house; host or cells: E. coli BL21 (DE3) RIL
# T1 sequence (Q8R5C8 556-602): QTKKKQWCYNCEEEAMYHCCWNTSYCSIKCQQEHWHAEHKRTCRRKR
# Text: as §1, §2
# BS69MYND Q546A = assay: ITC binding to BS69MYND Q546A; set-up: species or system mouse
# Text: as §1, §2
# BS69CC-MYND Q546A = assay: ITC binding to BS69CC-MYND Q546A; set-up: species or system mouse; settings: S1D Fig; ITC parameters could not be reliably determined
# Text: as §1, §2
# BS69CC-MYND = target: T2, BS69CC-MYND (Mus musculus, UniProt Q8R5C8); assay: ITC binding to BS69CC-MYND wild type; settings: EBNA2_435–445, peptide titrated into BS69CC-MYND, 5°C, 20 mM Tris-HCl pH 7.5, 100 mM NaCl, 2 mM DTT, one-site fitting, read-out: dissociation constant (K d)
# T2 construct: His6-SUMO (N, cleaved yes); made in house; host or cells: E. coli BL21 (DE3) RIL
# T2 sequence (Q8R5C8 480-602): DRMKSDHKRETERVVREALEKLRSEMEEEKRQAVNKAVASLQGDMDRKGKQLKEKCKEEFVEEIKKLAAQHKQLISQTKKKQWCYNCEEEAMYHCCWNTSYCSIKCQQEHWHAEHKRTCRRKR
# Text: as §1, §2
# BS69MYND Y532A = target: T3, BS69MYND Y532A (Mus musculus, UniProt Q8R5C8, Y572A); assay: ITC binding to BS69MYND Y532A; settings: versus BS69MYND wild type
# T3 construct: GST (N, cleaved yes); made in house; host or cells: E. coli BL21 (DE3) RIL
# T3 sequence (Q8R5C8 556-602 Y572A): T1 sequence (Q8R5C8 556-602) with Y17A
# Text: as §1, §2
# BS69MYND R560A = target: T4, BS69MYND R560A (Mus musculus, UniProt Q8R5C8, R600A); assay: ITC binding to BS69MYND R560A; settings: versus BS69MYND wild type
# T4 construct: GST (N, cleaved yes); made in house; host or cells: E. coli BL21 (DE3) RIL
# T4 sequence (Q8R5C8 556-602 R600A): T1 sequence (Q8R5C8 556-602) with R45A
# Text: as §1, §2
# BS69MYND W550A = assay: ITC binding to BS69MYND W550A; set-up: species or system mouse; settings: mutation W550A, EBNA2_381–389 peptide used with additional C-terminal Gly-Tyr
# Text: as §1, §2
Substance,ITC heat measurements with BS69CC-MYND Q546A/W550A (BS69CC-MYND Q546A/W550A),Kd (BS69MYND),effect of Q546A on binding affinity of BS69MYND-EBNA2_435–445 complex (BS69MYND Q546A; BS69MYND Q546A),ITC heat measurements with BS69CC-MYND Q546A (BS69CC-MYND Q546A),Kd (BS69CC-MYND),decrease of BS69MYND-EBNA2_381–389 binding by mutation Y532A (BS69MYND Y532A),decrease of BS69MYND-EBNA2_381–389 binding by mutation R560A (BS69MYND R560A),interaction with BS69MYND W550A (BS69MYND W550A),"interaction with BS69MYND Q546A (BS69MYND Q546A; mutation Q546A, EBNA2_381–389 peptide used with additional C-terminal Gly-Tyr)"
EAPILFPDDWY-NH2 [EBNA2_435–445],significantly lower than those of Fig 2H,93.4 µM,substantially decreases,significantly lower than those of Fig 2H,34.9 µM,–,–,–,–
H-SMPSLEPVLGY-NH2 [EBNA2_381–389],–,–,–,–,–,about 3 fold,~10 fold,largely abolished the interaction,largely abolished the interaction
